From patent publication US11040056B2, “Benzimidazoles that enhance the activity of oligonucleotides” (The University of North Carolina at Chapel Hill, priority 2018, dated 2021)

Experiments:
[1] = In vivo toxicity parameters (cardiac blood samples)
Description: All animal procedures were conducted in compliance with guidelines of the UNC Laboratory Animal Medicine Department and with federal guidelines. […] (20, 32) EGFP654 mice were administered 35 mg/kg of SSO623 or mismatched oligonucleotide in buffer by intraperitoneal injection on two consecutive days. One day later, mice received either 5 mg/kg of UNC2383 in a 1:1 DMSO/PEG400 solution or only the diluent, via intraperitoneal injection. […] After 24 h, the second cohort was euthanized and tissue and cardiac blood samples were obtained. […] (31) Blood samples were analyzed by the UNC Animal Clinical Chemistry Core facility.

[2] = tested on: P-glycoprotein (Pgp) expression in NIH-3T3-MDR cells; assay: ASO mediated inhibition of MDR1 gene expression (Pgp by flow cytometry); type: cell-based, mouse; conditions: 100 nM anti-MDR1 ASO 16 h; 10 μM UNC2383 2 h where used; 48 h
Description: FIG. 4. Effects with ASOs. Reduction of Pgp expression. NIH 3T3-MDR cells were incubated with 100 nM anti-MDR1 ASO or a mismatched (MM) control for 16 h in DMEM+1% FBS. Cells were rinsed and then treated with 10 μM UNC2383 for 2 h. The compound was removed, and the cells further incubated for 48 h. Expression of Pgp on the cell surface was determined by treating cells with Alexa 488 labeled anti-Pgp monoclonal antibody and binding quantitated by flow cytometry (PE(A)=units of fluorescence intensity). Treatment with ASO complexed with Lipofectamine 2000 (L2K) was a positive control. Y axis, cell counts; X axis, Alexa 488 fluorescence. […] Means±SE, N=3.
We also tested UNC2383 for its ability to affect ASOs rather than SSOs. The ASO was designed to inhibit expression of the MDR1 gene and its product the P-glycoprotein multidrug transporter. […] Cell surface expression of P-glycoprotein was monitored using an Alexa 488 labeled anti-Pgp monoclonal antibody and flow cytometry. […]
SSO-mediated luciferase induction assays were conducted as previously described. (18) In short, HeLaLuc705 cells in 24 well culture plates were preincubated with SSO623 followed by brief treatment with the small molecule; at intervals thereafter, luciferase activity and protein content were determined. […] Cytotoxicity of 2383 was monitored using the Alamar Blue assay. […]

[3] = tested on: CFTR channel activity in human bronchial epithelial cells (HBEC) from a 3849+10 kbC-T homozygous patient; assay: Ussing chamber analysis of CFTR function in 3849+10 kbC-T HBEC; type: cell-based
Excerpt: FIG. 11. CFTR activity restored to CF splicing mutation 3849+10 kbC-T using SSOs. SSOs were delivered in vitro by electroporation (˜100% efficiency), CF primary cells were differentiated on permeable supports and tested. Panel A. PCR analysis. The lower band is the correctly spliced CFTR. Panel B. Functional correction by Ussing chamber analysis.
FIG. 12. OEC Mediated Delivery of a SSO in 3849+10 kbC-T HBEC. Well-differentiated human bronchial epithelial cells (HBEC) derived from a 3849+10 kbC-T homozygous patient were incubated with corrective (LNA) SSO A from FIG. 1 (1 uM, overnight). Cells were then incubated with OEC UNC2383 in the luminal or serosal bath (4 uM, 2 hs). Both the SSO and OEC were added in cell growing medium. Seventy two hour later, HBEC were analyzed in Ussing chamber for CFTR function. Orkambi® was tested in parallel inserts.
Results: In vitro studies were performed in well-differentiated HBEC cells derived from a homozygous 3849+10 kbC→T CF patient (CF HBEC) treated with one dose of a specific SSO (1 uM, 12 hs) followed by one dose of OEC (apical or basolateral delivery, 2-4 uM, 2-3 hs). A significant increase of forskolin-stimulated CFTR activity in Ussing chamber analyses was observed 24-96 hs after SSO+OEC treatment compared to SSO alone treatment or vehicle. OEC was efficacious delivered apically as well as basolaterally. Transepithelial resistance and microscopy tests were implemented to monitor cytotoxicity, which was negligible for both SSO and OEC (FIG. 12). In vivo studies were performed in a transgenic mouse model that has a SSO-inducible EGFP reporter.
SSOs (100 nM) were introduced in airway epithelial cells derived from a 3849+10 kbC-T homozygous CF patient in suspension by electroporation using the Neon system, program A4. Cells were differentiated for 2 weeks in culture on human collagen-coated permeable supports (Millipore) before being tested in Ussing chambers following methods described in Kreda et al. […] “Characterization of Wild-Type and ΔF508 Cystic Fibrosis Transmembrane Regulator in Human Respiratory Epithelia” Mol. Biol. Cell 16(5):2154-2167 (100 uM Amiloride, Amil; 10 uM Forskolin, Fsk; 20 uM CFTR inhibitor 172). After Ussing chamber analysis, cells were lysed and assayed for RT-PCR as described in Wang et al 2017 (FIG. 11).
(SEQ ID NO:2), C (5′+G*mA*mG*mU*+C*mU*mU**mU*mA*+C*mU*mC*mA*mC*mC*+A*mU*mU*mU) (SEQ ID NO:3) (Locked Nucleic Acid (LNA)=+, PS=*, 2′OMe=m). In SSO sequences A, B, and C the underlined bases indicate oligo bases that match up to the bases in the mutated splice site in the 3849+10 kb C-T CFTR splicing mutation. MM623 or SSO623 sequences are described herein. […]

[4] = 24 h after administration, means +/− SE, N = 4

For `O=C(Nc1nc2ccccc2n1CCN1CCCC1)c1cc2cc(Cl)ccc2o1` [UNC2383], the toxicity in vivo ([1]; 5 mg/kg i.p.) was “limited toxicity”, the ALT [1, 4] was 106 +/− 32 U/L and the AST [1, 4] was 76 +/− 15 U/L. The BUN [1, 4] was 20 ± 4 mg/dL, the Hb [1, 4] was 11.8 ± 0.4 g/dL and the Platelets [1, 4] was 711 +/− 85 × 10^3/ul. For the same compound, the “Pgp expression on the cell surface” value [2] was “substantial reduction”, the “CFTR channel activity / functional correction” value ([3]; SSO A 1 uM overnight, OEC 4 uM 2 hs luminal or serosal, 72 h, approved drugs in parallel) was “significant enhancement” and the “oligonucleotide enhancing activity in human airway epithelial cells” value ([3]; in vitro) was “negligible activity”.
